Results from patent US7056940B2, “Insecticidal 3-(2,6-disubstituted phenyl)-5-[5-arylthien-2-yl]-1,2,4-triazoles” (Dow AgroSciences LLC, priority 2001, dated 2006).

Key:
[1] = tested on: Cotton Aphid (Aphis gossypii); assay: Insecticidal test for cotton aphid, spray on infested squash cotyledons; format: in vivo; conditions: 50 ppm spray, 3 days
Summary of the method: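 Squash cotyledons were infested with all aphid life stages 16–20 h beforehand, then sprayed on both sides to runoff with 50 ppm compound (acetone:ethanol, 0.05% Tween 20). After 3 days at 26 °C and 40% RH, aphids were counted under a microscope, and percent control is population reduction versus untreated.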

[2] = tested on: Cabbage Looper (Trichoplusia ni); assay: Insecticidal test for cabbage looper, treated cabbage leaf disc; format: in vivo; conditions: cabbage leaf-dip, 2nd instar larvae, 5 days
[3] = tested on: Two-spotted Spider Mite (Tetranychus urticae); assay: Insecticidal test for two-spotted spider mite, ovicide method; format: in vivo; conditions: cotton leaf discs, 6 days
Summary of the method: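 Cotton leaf discs (eight, 2.2 cm each) received ten adult female two-spotted spider mites, which laid eggs for 24 hours before being taken off. The discs were then set on an agar substrate and kept at 24° C. and 90% RH for 6 days to assess ovicidal control.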

[4] = tested on: Sweetpotato Whitefly (Bemisia tabacia); assay: Insecticidal test for sweetpotato whitefly, spray on cotton plants; format: in vivo; conditions: 200 ppm spray, 13 days, large nymphs
Summary of the method: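 Five-week cotton plants trimmed to two leaves carried 2 days of whitefly oviposition, then adults were removed. Leaves were sprayed top and bottom with 200 ppm compound in water with 0.05% Tween 20 (acetone:ethanol co-solvent), four replicates. After 13 days at 28° C/60% RH, 3rd–4th instar nymphs were counted; percent control versus solvent-only sprayed plants.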

[5] = tested on: Tobacco Budworm (Heliothis virescens); assay: Insecticidal test for tobacco budworm, treated cotton cotyledon leaf disc; format: in vivo; design: key: A: 90–100; B: 80–89; C: 70–79; D: 60–69; E: 50–59; F: less than 50; G: Inactive; conditions: cotton cotyledon leaf-dip, 2nd instar larvae, 5 days
[6] = tested on: Beet Armyworm (Spodoptera exigua); assay: Insecticidal test for beet armyworm, treated lepidopteran diet; format: in vivo; design: key: A: 90–100; B: 80–89; C: 70–79; D: 60–69; E: 50–59; F: less than 50; G: Inactive; conditions: on diet surface, second-instar larvae, 5 days
Summary of the method: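 Test compound formulated at 400 ppm in 2:1 acetone:tap water; 250 μL applied onto surface of modified Shorey lepidopteran diet, five cups per compound (one cup = one replicate). After solvent air-dried, one second-instar larva placed on treated diet per cup.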

Cc1c(-c2nc(-c3c(F)cccc3Cl)nn2C)csc1-c1ccc(OC(F)(F)F)cc1 [Example 1, 3-(2-Chloro-6-fluorophenyl)-5-[4-methyl-5-(4-trifluoromethoxyphenyl)thien-3-yl]-1-methyl-1H-1,2,4-triazole]
melting point: 124 to 125 °C

Cn1nc(-c2c(F)cccc2Cl)nc1-c1cc(-c2cccc(C(F)(F)F)c2)sc1Cl [Example 2, 3-(2-Chloro-6-fluorophenyl)-5-[2-chloro-5-(3-trifluoromethylphenyl)thien-3-yl]-1-methyl-1H-1,2,4-triazole]
melting point: 53 to 54 °C

Cn1nc(-c2c(F)cccc2Cl)nc1-c1cc(-c2ccc(OC(F)(F)F)cc2)sc1Br [Example 3, 3-(2-Chloro-6-fluorophenyl)-5-[2-bromo-5-(4-trifluoromethoxyphenyl)thien-3-yl]-1-methyl-1H-1,2,4-triazole]
melting point: 135 to 136 °C

Cc1sc(-c2ccc(OC(F)(F)F)cc2)cc1-c1nc(-c2c(F)cccc2Cl)nn1C [Example 4, 3-(2-Chloro-6-fluorophenyl)-5-[2-methyl-5-(4-trifluoromethoxyphenyl)thien-3-yl]-1-methyl-1H-1,2,4-triazole]
melting point: 153 to 155 °C

Cc1c(-c2nc(-c3c(F)cccc3Cl)nn2C)csc1-c1ccc(OC(F)(F)C(F)C(F)(F)F)cc1 (centres unmarked) [Example 7, 3-(2-Chloro-6-fluorophenyl)-5-{5-[4-(1,1,2,3,3,3-hexafluoropropoxy)phenyl]-4-methylthien-3-yl}-1-methyl-1H-1,2,4-triazole]
melting point: 114 to 116 °C

Cc1c(-c2nc(-c3c(F)cccc3Cl)nn2C)csc1-c1ccc(F)cc1F [drawing 233]
CA: activity at 50 ppm against cotton aphid (% control rating) [1]: B (80–89) | CL: activity at 400 ppm against cabbage looper (% control rating) [2]: A (90–100) | SM: activity against two-spotted spider mite (% control rating) [3]: B (80–89) | WF: activity at 200 ppm against whitefly (% control rating) [4]: F (less than 50) | TBW: activity at 400 ppm against tobacco budworm (% control rating) [5]: G | BAW: activity at 400 ppm against beet armyworm (% control rating) [6]: G
